Measured values from patent US8232253B2, “Treatment of lung cancer” (Ramot at Tel-Aviv University Ltd., priority 2006, dated 2012).

Experiments:
A549 cells [1] = experiment: A549-cell-implanted nude mouse model, tumor growth; assay type: in vivo, nude mice
Description: Nude mice (6 weeks old) were housed in barrier facilities on a 12-h light/dark cycle. Food and water were supplied ad libitum. On day zero, A549 or HTB-58 cells (5×10^6 cells in 0.1 ml PBS) were implanted subcutaneously (s.c.) just above the right femoral joint. After 5 or 11 days the mice were separated randomly into control groups that had received only the vehicle and FTS-treated groups. Daily FTS treatments were administered either intraperitoneally (i.p.) or orally. Tumor volumes or weights were determined as described in Barkan, B., Starinsky, S., Friedman, E., Stein, R., Kloog, Y., Clin Cancer Res 12:5533-42 (2006). Gemcitabine treatment (36 mg/kg, i.p.) was administered every 4 days.
To determine whether FTS inhibited tumor growth in vivo, experiments were conducted using a nude mouse model. The lung cancer cells were implanted s.c. above the right femoral joint and the mice were then treated with FTS. In a first experiment, the effect of i.p. administration of FTS on tumor growth in A549 cells was assessed. Treatment was started 5 days after cell implantation, by which time the tumors were palpable. Tumor volumes were determined 24 days after implantation in two groups of mice (n=8) that had received daily i.p. administration of either the vehicle (control) or 10 mg/kg FTS.
In an additional set of experiments, the A549-cell-implanted nude mouse model was used to examine the effect of orally administered FTS on tumor growth. First, cells were implanted as described above and daily oral treatment with FTS (50 mg/kg; n=6) or vehicle (n=5) was started either 11 days (FIG. 14C) or 6 days (FIG. 14D) after implantation. […] Next, the effects of orally administered FTS, alone or in combination with gemcitabine, on A549-cell tumor growth was examined (FIG. 14D). Six days after cell implantation, mice were divided into four groups (n=8 per group) and treated orally with vehicle alone (control), FTS alone (60 mg/kg), vehicle and gemcitabine (36 mg/kg, i.p. every 4 days), or FTS and gemcitabine. Treatments with gemcitabine began 1 week after FTS treatment was started.

[2] = tested on: human lung cancer cell lines A549, H23, HTB54, H-1299, HTB-58 (SK-MES-1); experiment: Growth inhibition of human lung cancer cell lines by direct cell counting; assay type: cell-based; details: range over A549, H23, HTB54, H-1299, HTB-58 (SK-MES-1), read-out: IC50 of growth inhibition, depending on the cell line
Description: FTS was provided by Concordia Pharmaceuticals, Inc. (Ft. Lauderdale, Fla.). All cell lines were obtained from American Type Culture Collection (“ATCC”) (Manassas, Va.). A549 cells, non-small-cell lung carcinoma (CCL, ATCC) cells, were cultured in Kaighn's modification of Ham's F-12 medium containing 1.5 g/l sodium bicarbonate, 10% fetal calf serum (FCS), 100 U/ml penicillin, and 100 μg/ml streptomycin. HTB54 lung carcinoma cells were cultured in McCoy's 5A medium with 10% FCS, 100 U/ml penicillin, and 10 μg/ml streptomycin. HTB-58 (SK-MES-1, ATCC), a human lung squamous cell carcinoma cell line, was cultured in Eagle's minimum essential medium with 2 mM L-glutamine and Earle's BSS, 1.5 g/l sodium bicarbonate, 0.1 mM non-essential amino acids, 1 mM sodium pyruvate, 10% FCS, 100 U/ml penicillin, and 100 μg/ml streptomycin. […] Cells were treated with the indicated concentrations of FTS (Concordia Pharmaceuticals, Sunrise Fla.) or with 0.1% Me2SO4 (DMSO) (vehicle) 24 h after plating and were counted 5 days later. Dead cells were counted after addition of Hoechst 33258 dye (Sigma-Aldrich, St. Louis, Mo.); 1 μg/ml) to vehicle-treated control cultures or to cultures treated for 24 or 48 h with 75 μM FTS. Fluorescence images were collected 5 min after the dye was added. […]

A549 cells [3] = experiment: FACS analysis of cell cycle (propidium iodide); assay type: cell-based, human; details: for apoptotic population of cells (sub-G1): 75 μM FTS; for reduction in G1 population: FTS
Description: A549 cells were plated (9×10^5 cells) in 10-cm plates, incubated for 24 h in medium containing 5% FCS, and then incubated for 24 or 48 h with or without 75 μM FTS. The cells were collected, resuspended in PBS containing propidium iodide (50 μg/ml; Sigma) and 0.05% Triton X-100, and subjected to analysis by a fluorescence-activated cell sorter (FACSCalibur; Becton Dickinson, Los Angeles, Calif.).
To investigate the effect of FTS on lung cancer cell proliferation, we first incubated A549 cells that harbor the activated K-ras gene mutated at codon 12. A549 cells are commonly used as a model for drug screening. […] Increasing concentration of FTS inhibited A549 cell growth at a dose dependent rate, with a decrease of 50% at 40 μM FTS. The number of cells in the FTS-treated cultures was determined by direct counting of A549 cells grown for 6 days in the presence of FTS and was expressed as a percentage of the number recorded in the controls. Data were means of 12 counts ±SD. *P<0.01, **P<0.0005, compared to control (FIG. 3). In another set of experiments, cells were also treated for 24 and 48 h with FTS and collected for FACS analysis (FIG. 4). The apoptotic population of cells (indicated in the FACS analysis as sub-G1) was 3.8% at 24 h and 8.4% at 48 h in cells treated with 75 μM FTS, compared to 1.0% and 2.8%, respectively, in control cells (FIG. 4). […] Thus, FTS induced cell-cycle arrest in A549 cells, resulting in inhibition of cell growth.

[4] = 50 mg/kg FTS oral daily from day 11, after 16 days of treatment (FIG. 14C)
[5] = 60 mg/kg FTS oral alone, from day 6 (FIG. 14D)

IC50 [2]: 30 to 75 µM
Compound: CC(C)=CCC/C(C)=C/CC/C(C)=C/CSc1ccccc1C(=O)O [FTS, S-farnesylthiosalicylic acid]
inhibition of tumor growth relative to control (tumor volume) (A549 cells [1]; 10 mg/kg FTS i.p. daily from day 5, 24 days after implantation): 53.8% | inhibition in tumor growth (A549 cells [1]; [4]): 53.7±19.1% | tumor weight (mean±SD) (A549 cells [1]; [4]): 0.4 ± 0.19 g | inhibition in tumor growth (A549 cells [1]; [5]): 46.2±16.3% | tumor weight (mean±SD) (A549 cells [1]; [5]): 0.49 ± 0.15 g | apoptotic population of cells (sub-G1) (A549 cells [3]; 24 h): 3.8% | apoptotic population of cells (sub-G1) (A549 cells [3]; 48 h): 8.4% | reduction in G1 population (A549 cells [3]; 24 h): 5.6% | reduction in G1 population (A549 cells [3]; 48 h): 19%
